Where two headings read alike, the source gives them in different places. Marks after values point to notes of the source that are not given here.
Experiment: Chemical stability of liquid composition on storage
Assay type: physicochemical
Protocol: The chemical stability of a disclosed liquid composition stored at 6° C. or 22° C. was evaluated at 2 months and three months. The microbial stability and shelf life was also evaluated. A liquid composition having a pH of about 3.7 was subjected to high pressure processing at 6000 bar for two cycles of 5 minutes.

[1] = stored at 6° C. or 22° C., adjusted for slightly lower oil volume in 3 months preparation (55 ml vs 60 ml)

Compound | amount in liquid composition at 2 Months (chemical stability) (stored at 6° C. or 22° C.) | amount in liquid composition at 3 Months (chemical stability) (stored at 6° C. or 22° C.) [mg/60 mL] | amount in liquid composition at 2 Months (chemical stability) [mg/60 mL] | amount in liquid composition at 3 Months (chemical stability) | amount in liquid composition at 3 Months (chemical stability) [1]
NCC(=O)O [Glycine] | 3319 mg/60 mL | 3303 |  |  | 
N[C@@H](Cc1c[nH]c2ccccc12)C(=O)O [L-Tryptophan] | 420 mg/60 mL | 426 |  |  | 
[Mg+2] [Magnesium] |  |  | 15 | 27.8 mg/60 mL | 
[Na] [Sodium] | 1.23 mg/60 mL | 0.6 |  |  | 
O=C1O[C@H]([C@@H](O)CO)C(O)=C1O [Vitamin C] | 326 mg/60 mL | 245 |  |  | 
[Zn] [Zinc] | 6 mg/60 mL | 5.7 |  |  | 
CC/C=C\C/C=C\C/C=C\CCCCCCCC(=O)O [alpha linoleic acid] |  |  | 1026 | 1025* mg/60 mL | 
CC/C=C\C/C=C\C/C=C\C/C=C\C/C=C\CCCC(=O)O [eicosapentaenoic acid] | 319 mg/60 mL |  |  |  | 297* mg/60 mL
Medium chain triglycerides |  |  | 2209 | 2407* mg/60 mL | 
Vitamin D | 25 mcg/60 mL |  |  |  | 26* mcg/60 mL
Vitamin E |  | 2.2 |  |  | 
docosapenataenoic acid | 632 mg/60 mL |  |  |  | 587* mg/60 mL

Source: US20240173295A1, “A STABLE, EMULSION-FORMING LIQUID COMPOSITION COMPRISING AMINO ACIDS” (Brain Luxury Inc., priority 2021, published 2024)
